Source: EPA's ToxRefDB 2

Assays:
[1] = test system: rat; conditions: Multigenerational reproductive toxicity study, wistar, Oral, Gavage/Intubation, dose end: 2 generation
[2] = test system: rat; conditions: Prenatal developmental toxicity study, sprague dawley, Oral, Gavage/Intubation, dose end: 15 GD
[3] = test system: rabbit; conditions: Prenatal developmental toxicity study, dutch, Oral, Gavage/Intubation, dose end: 18 GD
[4] = test system: rat; conditions: Multigenerational reproductive toxicity study, sprague dawley, Oral, Feed, dose end: 2 generation
[5] = test system: rat; conditions: Multigenerational reproductive toxicity study, sprague dawley, Oral, Feed, dose end: 2 generation; remark: listed apart in the source
[6] = test system: rat; conditions: Prenatal developmental toxicity study, sprague dawley, Oral, Gavage/Intubation, dose end: 15 GD; remark: listed apart in the source
[7] = test system: rat; conditions: Prenatal developmental toxicity study, sprague dawley, Oral, Gavage/Intubation, dose end: 16 GD
[8] = test system: rabbit; conditions: Prenatal developmental toxicity study, new zealand white, Oral, Gavage/Intubation, dose end: 18 GD
[9] = group: offspring, developmental / offspring survival late / lactation index / lactation index
[10] = group: parental, systemic / in life observation / body weight / body weight + systemic / in life observation / clinical signs / poor general condition
[11] = group: developmental, developmental / developmental malformation / bone / [other] + developmental / developmental malformation / bone / incomplete ossification + …
[12] = group: maternal, systemic / in life observation / body weight / body weight gain
[13] = group: developmental, systemic / in life observation / body weight / fetal weight
[14] = group: maternal, reproductive / reproductive performance / resorptions / resorptions + systemic / in life observation / body weight / body weight gain + …
[15] = group: offspring, developmental / offspring survival late / viability index / viability index + developmental / developmental landmark / anogenital distance (…
[16] = group: offspring, systemic / organ weight / kidney / absolute + systemic / organ weight / liver / absolute + systemic / pathology microscopic / liver / …
[17] = group: parental, systemic / in life observation / body weight / body weight + systemic / organ weight / kidney / absolute + systemic / organ weight / liver…
[18] = group: parental, systemic / organ weight / liver / absolute + systemic / pathology microscopic / liver / hypertrophy + systemic / organ weight / kidney / …
[19] = group: reproductive, reproductive / offspring survival early / birth index / live birth index
[20] = group: offspring, systemic / organ weight / kidney / absolute + systemic / organ weight / liver / absolute + systemic / pathology gross / kidney / enlarged + …
[21] = group: parental, systemic / organ weight / liver / absolute + systemic / organ weight / kidney / absolute
[22] = group: developmental, developmental / developmental malformation / bone / incomplete ossification + developmental / developmental malformation / bone / …
[23] = group: maternal, systemic / in life observation / body weight / body weight gain + systemic / in life observation / food consumption / food consumption
[24] = group: maternal, systemic / in life observation / food consumption / food consumption
[25] = group: maternal, systemic / in life observation / food consumption / food consumption + systemic / in life observation / body weight / body weight
[26] = group: developmental, developmental / developmental malformation / bone / absent + developmental / developmental malformation / bone / full supernumerary
[27] = group: maternal, systemic / in life observation / clinical signs / respiration (dyspnea)

For N#Cc1ccc(CC(=NNC(=O)Nc2ccc(OC(F)(F)F)cc2)c2cccc(C(F)(F)F)c2)cc1 (mixture of isomers) [Metaflumizone], which LEL [1, 9] is on record?
Its LEL is 50 mg/kg/day.

What about the LOAEL [1, 9] of the same compound?
The LOAEL was 50 mg/kg/day.

And the NEL [1, 9]?
The NEL was 20 mg/kg/day.

And the NOAEL [1, 9]?
The NOAEL was 20 mg/kg/day.

What about the LEL [1, 10] of the same compound?
Its LEL is 50 mg/kg/day.

What about the LOAEL [1, 10] of the same compound?
The LOAEL was 50 mg/kg/day.

What about the NEL [1, 10] of the same compound?
The NEL was 20 mg/kg/day.

What about the NOAEL [1, 10] of the same compound?
Its NOAEL is 20 mg/kg/day.

How did the LEL ([2]; group: developmental, developmental / developmental malformation / bone / [other] + developmental / developmental malformation / bone / incomplete ossification) turn out when Cc1cccc(N)c1N [2,3-Diaminotoluene] was run?
The LEL was 100 mg/kg/day.

What about the LOAEL [2, 11] of the same compound?
The LOAEL was greater than 300 mg/kg/day.

And the NEL [2, 11]?
Its NEL is 30 mg/kg/day.

What about the NOAEL [2, 11] of the same compound?
Its NOAEL is no less than 300 mg/kg/day.

And the LEL [2, 12]?
The LEL was 300 mg/kg/day.

What about the LOAEL [2, 12] of the same compound?
The LOAEL was greater than 300 mg/kg/day.

And the NEL [2, 12]?
Its NEL is 100 mg/kg/day.

What about the NOAEL [2, 12] of the same compound?
Its NOAEL is no less than 300 mg/kg/day.

And the LEL [3, 13]?
The LEL was 100 mg/kg/day.

And the LOAEL [3, 13]?
Its LOAEL is greater than 100 mg/kg/day.

What about the NEL [3, 13] of the same compound?
The NEL was 30 mg/kg/day.

And the NOAEL [3, 13]?
The NOAEL was no less than 100 mg/kg/day.

And the NEL ([3]; group: maternal, reproductive / reproductive performance / resorptions / resorptions + systemic / in life observation / body weight / body weight gain)?
Its NEL is 30 mg/kg/day.

And the LEL [3, 14]?
Its LEL is 100 mg/kg/day.

And the LOAEL [3, 14]?
Its LOAEL is greater than 100 mg/kg/day.

What about the NOAEL [3, 14] of the same compound?
Its NOAEL is no less than 100 mg/kg/day.

What does the source list for CC(C)CCCCCCCOC(=O)c1ccccc1C(=O)OCCCCCCCC(C)C [Diisodecyl phthalate]?
LOAEL [4, 15]: > 400 mg/kg/day; NOAEL [4, 15]: ≥ 400 mg/kg/day; LEL [4, 16]: 100 mg/kg/day; NEL [4, 16]: < 100 mg/kg/day; LOAEL [4, 17]: > 400 mg/kg/day; NOAEL [4, 17]: ≥ 400 mg/kg/day; LEL [4, 18]: 100 mg/kg/day; NEL [4, 18]: < 100 mg/kg/day; LEL [4, 19]: 100 mg/kg/day; LOAEL [4, 19]: > 400 mg/kg/day; NEL [4, 19]: < 100 mg/kg/day; NOAEL [4, 19]: ≥ 400 mg/kg/day; LEL [5, 20]: 100 mg/kg/day; LOAEL [5, 20]: > 200 mg/kg/day; NEL [5, 20]: 30 mg/kg/day; NOAEL [5, 20]: ≥ 200 mg/kg/day; NEL ([5]; group: parental, systemic / organ weight / liver / absolute): 100 mg/kg/day; LEL [5, 21]: 200 mg/kg/day; LOAEL [5, 21]: > 200 mg/kg/day; NOAEL [5, 21]: ≥ 200 mg/kg/day; LEL [5, 19]: 100 mg/kg/day; LOAEL [5, 19]: > 200 mg/kg/day; NEL [5, 19]: 30 mg/kg/day; NOAEL [5, 19]: ≥ 200 mg/kg/day; LEL [6, 22]: 1000 mg/kg/day; LOAEL [6, 22]: > 1000 mg/kg/day; NEL [6, 22]: 500 mg/kg/day; NOAEL [6, 22]: ≥ 1000 mg/kg/day; LEL [6, 23]: 1000 mg/kg/day; LOAEL [6, 23]: > 1000 mg/kg/day; NEL [6, 23]: 500 mg/kg/day; NOAEL [6, 23]: ≥ 1000 mg/kg/day

Which results are given for C=CCOC(Cn1ccnc1)c1ccc(Cl)cc1Cl.O=S(=O)(O)O (configuration not stated) [Imazalil sulfate]?
LEL [7, 13]: 80 mg/kg/day; LOAEL [7, 13]: 80 mg/kg/day; NEL [7, 13]: 40 mg/kg/day; NOAEL [7, 13]: 40 mg/kg/day; LOAEL [7, 24]: 40 mg/kg/day; NOAEL [7, 24]: < 40 mg/kg/day; LEL [7, 25]: 40 mg/kg/day; NEL [7, 25]: < 40 mg/kg/day; LEL [8, 26]: 20 mg/kg/day; LOAEL [8, 26]: > 20 mg/kg/day; NEL [8, 26]: 10 mg/kg/day; NOAEL [8, 26]: ≥ 20 mg/kg/day; LOAEL [8, 14]: 10 mg/kg/day; NOAEL [8, 14]: 5 mg/kg/day; LEL [8, 27]: 5 mg/kg/day; NEL [8, 27]: < 5 mg/kg/day
